Structures are written as SMILES.

The assay deals with T1, human M1 receptor (hCHRM1) (Homo sapiens, UniProt P11229).
T1 construct: expressed in transfected cells
T1 sequence (P11229 1-460): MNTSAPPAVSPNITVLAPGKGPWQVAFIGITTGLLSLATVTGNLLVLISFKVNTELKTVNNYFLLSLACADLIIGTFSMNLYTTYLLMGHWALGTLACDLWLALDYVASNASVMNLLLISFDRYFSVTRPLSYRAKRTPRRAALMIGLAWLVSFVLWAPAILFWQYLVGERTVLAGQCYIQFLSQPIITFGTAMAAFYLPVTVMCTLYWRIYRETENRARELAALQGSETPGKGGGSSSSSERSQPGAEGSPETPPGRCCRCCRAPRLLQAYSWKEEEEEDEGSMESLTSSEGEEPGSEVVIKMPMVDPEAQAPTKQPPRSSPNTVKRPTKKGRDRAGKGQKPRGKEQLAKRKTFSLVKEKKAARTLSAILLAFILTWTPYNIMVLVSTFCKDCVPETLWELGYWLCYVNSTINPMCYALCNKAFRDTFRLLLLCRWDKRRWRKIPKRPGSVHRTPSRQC
Nature of the assay: Measurement of M1 receptor positive allosteric modulator (M1PAM) activity, calcium fluorescence in CHO-K1 cells.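 For EC50: potency reported as IP value in nM.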 The assay is classed as cell-based. The following applies: for activity (%) at 10 μM: 10 μM test compound with acetylcholine at EC20, 100% = acetylcholine 1 μM, 0% = DMSO; for EC50: inflection point in the concentration-dependent curve, acetylcholine at EC20 (final 0.6-0.8 nM), CHO-K1 cells expressing human M1, Fluo-4, FLIPRtetra, read-out: IP value. The protocol:
Measurement of M1 Receptor Positive Allosteric Modulator (M1PAM) Activity
The activity of a test compound in the presence of acetylcholine at EC20 concentration (final concentration 0.6-0.8 nM), which affords an action corresponding to about 20% of the maximum activity, was measured as PAM activity. The method is as follows. CHO-K1 cells stably expressing a human M1 receptor (hCHRM1) were plated on a 384-well black clear bottom plate (BD Falcon) at 5,000 cells/well, and cultured in an incubator at 37° C., 5% CO2 for 1 day. The medium in the cell plate was removed, and assay buffer A containing calcium indicator (Recording medium (DOJINDO LABORATORIES), 0.1% BSA (Wako Pure Chemical Industries, Ltd.), 2.5 μg/mL Fluo-4 AM (DOJINDO LABORATORIES), 0.08% Pluronic F127 (DOJINDO LABORATORIES), 1.25 mM probenecid (DOJINDO LABORATORIES)) was added at 30 μL/well. The cells were left standing in the incubator at 37° C., 5% CO2 for 30 min, and further left standing at room temperature for 30 min. A test compound prepared by diluting with assay buffer B (HBSS (Invitrogen), 20 mM HEPES (Invitrogen), 0.1% BSA) containing 2.4-3.2 nM acetylcholine was added at 10 μL/well, and the fluorescence was measured by FLIPRtetra (Molecular Devices) for 1 min every 1 second. With the definition that the amount of change in the fluorescence on addition of acetylcholine (final concentration 1 μM) is 100% and that on addition of DMSO instead of a test compound is 0%, the activity (%) of the test compound was calculated, and the inflection point in the concentration-dependent curve of the test compound was calculated as IP values.

In the case of `CCn1cc(-c2ccc(CN3Cc4ncnc(OCC(C)(F)F)c4C3=O)cc2)cn1` [Example 1, 4-(2,2-difluoropropoxy)-6-(4-(1-ethyl-1H-pyrazol-4-yl)benzyl)-6,7-dihydro-5H-pyrrolo[3,4-d]pyrimidin-5-one], the “activity (%) at 10 μM” value was 91% and the EC50 came out at 17 nM.

Consider `CCn1cc(-c2ccc(CN3Cc4ncnc(OCC(F)F)c4C3=O)cc2)cn1` [Example 2, 4-(2,2-difluoroethoxy)-6-(4-(1-ethyl-1H-pyrazol-4-yl)benzyl)-6,7-dihydro-5H-pyrrolo[3,4-d]pyrimidin-5-one], for which the “activity (%) at 10 μM” value stood at 108% and the EC50 was found to be 31 nM.

`CCn1cc(-c2ccc(CN3Cc4ncnc(OCC(C)(F)F)c4C3=O)c(F)c2)cn1` [Example 3, 4-(2,2-difluoropropoxy)-6-(4-(1-ethyl-1H-pyrazol-4-yl)-2-fluorobenzyl)-6,7-dihydro-5H-pyrrolo[3,4-d]pyrimidin-5-one]: the “activity (%) at 10 μM” value was determined as 103% and the EC50 is 8.9 nM.

Regarding `CCn1cc(-c2ccc(CN3Cc4ncnc(OCC(F)F)c4C3=O)c(F)c2)cn1` [Example 4, 4-(2,2-difluoroethoxy)-6-(4-(1-ethyl-1H-pyrazol-4-yl)-2-fluorobenzyl)-6,7-dihydro-5H-pyrrolo[3,4-d]pyrimidin-5-one], the “activity (%) at 10 μM” value was 99% and the EC50 turned out to be 8.7 nM.

Regarding `Cc1nn(C)cc1-c1ccc(CN2Cc3ncnc(OCC(C)(C)F)c3C2=O)cc1` [Example 5, 6-(4-(1,3-dimethyl-1H-pyrazol-4-yl)benzyl)-4-(2-fluoro-2-methylpropoxy)-6,7-dihydro-5H-pyrrolo[3,4-d]pyrimidin-5-one], the “activity (%) at 10 μM” value is given as 105% and the EC50 was determined as 17 nM.

With `CCC(F)(F)COc1nccc2c1C(=O)N(Cc1ccc(-c3cn(C)nc3C)cc1F)C2` [Example 7, 4-(2,2-difluorobutoxy)-2-(4-(1,3-dimethyl-1H-pyrazol-4-yl)-2-fluorobenzyl)-1,2-dihydro-3H-pyrrolo[3,4-c]pyridin-3-one], the “activity (%) at 10 μM” value was 90% and the EC50 turned out to be 9.1 nM.

Take `CCC(F)(F)COc1ncnc2c1C(=O)N(Cc1ccc(-c3cn(C)nc3C)cc1)C2` [Example 8, 4-(2,2-difluorobutoxy)-6-(4-(1,3-dimethyl-1H-pyrazol-4-yl)benzyl)-6,7-dihydro-5H-pyrrolo[3,4-d]pyrimidin-5-one]: the “activity (%) at 10 μM” value stood at 109% and the EC50 stood at 23 nM.

Turning to `Cn1ccc(-c2ccc(CN3Cc4ncnc(OCC(F)(F)F)c4C3=O)c(F)c2)n1` [Example 9, 6-(2-fluoro-4-(1-methyl-1H-pyrazol-3-yl)benzyl)-4-(2,2,2-trifluoroethoxy)-6,7-dihydro-5H-pyrrolo[3,4-d]pyrimidin-5-one], the “activity (%) at 10 μM” value was 102% and the EC50 is 77 nM.

Consider `CCC(F)(F)COc1ncnc2c1C(=O)N(Cc1ccc(C(=O)NC)cc1)C2` [Example 10, 4-((4-(2,2-difluorobutoxy)-5-oxo-5,7-dihydro-6H-pyrrolo[3,4-d]pyrimidin-6-yl)methyl)-N-methylbenzamide], for which the “activity (%) at 10 μM” value is on record as 103% and the EC50 came to 33 nM.

Consider `Cc1cc(-c2ccc(CN3Cc4ncnc(OCC(F)(F)F)c4C3=O)cc2)ccn1` [Example 11, 6-(4-(2-methylpyridin-4-yl)benzyl)-4-(2,2,2-trifluoroethoxy)-6,7-dihydro-5H-pyrrolo[3,4-d]pyrimidin-5-one], for which the “activity (%) at 10 μM” value is recorded as 87% and the EC50 worked out at 23 nM.

Take `CC(F)(F)COc1nccc2c1C(=O)N(Cc1ccc(-c3cnn(CC(F)(F)F)c3)cc1)C2` [Example 12, 4-(2,2-difluoropropoxy)-2-(4-(1-(2,2,2-trifluoroethyl)-1H-pyrazol-4-yl)benzyl)-1,2-dihydro-3H-pyrrolo[3,4-c]pyridin-3-one]: the “activity (%) at 10 μM” value stood at 97% and the EC50 is 59 nM.

For `CC(F)(F)COc1nccc2c1C(=O)N(Cc1ccc(-c3cnn(CC(F)F)c3)cc1)C2` [Example 13, 2-(4-(1-(2,2-difluoroethyl)-1H-pyrazol-4-yl)benzyl)-4-(2,2-difluoropropoxy)-1,2-dihydro-3H-pyrrolo[3,4-c]pyridin-3-one], the “activity (%) at 10 μM” value was 100% and the EC50 stood at 55 nM.

As to `Cn1cc2cc(-c3ccc(CN4Cc5ccnc(OCC(C)(F)F)c5C4=O)cc3)ccc2n1` [Example 14, 4-(2,2-difluoropropoxy)-2-(4-(2-methyl-2H-indazol-5-yl)benzyl)-1,2-dihydro-3H-pyrrolo[3,4-c]pyridin-3-one], the “activity (%) at 10 μM” value is recorded as 88% and the EC50 came to 51 nM.

Regarding `Cc1nn(C)cc1-c1cc(F)c(CN2Cc3ncnc(OCC(F)F)c3C2=O)s1` [Example 15, 4-(2,2-difluoroethoxy)-6-((5-(1,3-dimethyl-1H-pyrazol-4-yl)-3-fluoro-2-thienyl)methyl)-6,7-dihydro-5H-pyrrolo[3,4-d]pyrimidin-5-one], the “activity (%) at 10 μM” value amounted to 100% and the EC50 was 16 nM.

In the case of `Cn1cc(-c2ccc(CN3Cc4ccnc(OCCC(F)(F)F)c4C3=O)c(F)c2)nn1` [Example 16, 2-(2-fluoro-4-(1-methyl-1H-1,2,3-triazol-4-yl)benzyl)-4-(3,3,3-trifluoropropoxy)-1,2-dihydro-3H-pyrrolo[3,4-c]pyridin-3-one], the “activity (%) at 10 μM” value is on record as 111% and the EC50 was 85 nM.

Turning to `CC(F)(F)COc1nccc2c1C(=O)N(Cc1ccc(-c3cnn(C4CC4)c3)cc1)C2` [Example 17, 2-(4-(1-cyclopropyl-1H-pyrazol-4-yl)benzyl)-4-(2,2-difluoropropoxy)-1,2-dihydro-3H-pyrrolo[3,4-c]pyridin-3-one], the “activity (%) at 10 μM” value was 99% and the EC50 amounted to 95 nM.

In the case of `Cc1nn(C)cc1-c1ccc(CN2Cc3ccnc(OCC(F)(F)C(F)F)c3C2=O)cc1` [Example 18, 2-(4-(1,3-dimethyl-1H-pyrazol-4-yl)benzyl)-4-(2,2,3,3-tetrafluoropropoxy)-1,2-dihydro-3H-pyrrolo[3,4-c]pyridin-3-one], the “activity (%) at 10 μM” value is on record as 102% and the EC50 was 280 nM.

Regarding `CCC(F)(F)COc1nccc2c1C(=O)N(Cc1ccc(-c3cnnc(C)c3)cc1)C2` [Example 19, 4-(2,2-difluorobutoxy)-2-(4-(6-methylpyridazin-4-yl)benzyl)-1,2-dihydro-3H-pyrrolo[3,4-c]pyridin-3-one], the “activity (%) at 10 μM” value was 98% and the EC50 amounted to 240 nM.

In the case of `CC(F)(F)COc1nccc2c1C(=O)N(Cc1ccc(-c3ccns3)cc1)C2` [Example 20, 4-(2,2-difluoropropoxy)-2-(4-(1,2-thiazol-5-yl)benzyl)-1,2-dihydro-3H-pyrrolo[3,4-c]pyridin-3-one], the “activity (%) at 10 μM” value is listed as 91% and the EC50 is 360 nM.

Consider `CC(F)(F)COc1nccc2c1C(=O)N(Cc1ccc(-c3ccoc3)cc1F)C2` [Example 21, 4-(2,2-difluoropropoxy)-2-(2-fluoro-4-(3-furyl)benzyl)-1,2-dihydro-3H-pyrrolo[3,4-c]pyridin-3-one], for which the “activity (%) at 10 μM” value came to 101% and the EC50 turned out to be 290 nM.

Regarding `CCn1cc(-c2ccc(CN3Cc4ncnc(OCC(F)(F)CC)c4C3=O)s2)cn1` [Example 30, 4-(2,2-difluorobutoxy)-6-((5-(1-ethyl-1H-pyrazol-4-yl)-2-thienyl)methyl)-6,7-dihydro-5H-pyrrolo[3,4-d]pyrimidin-5-one], the “activity (%) at 10 μM” value worked out at 103% and the EC50 was 96 nM.

On to `Cc1nn(C)cc1-c1ccc(CN2Cc3ncnc(OCC(F)F)c3C2=O)s1` [Example 34, 4-(2,2-difluoroethoxy)-6-((5-(1,3-dimethyl-1H-pyrazol-4-yl)-2-thienyl)methyl)-6,7-dihydro-5H-pyrrolo[3,4-d]pyrimidin-5-one], for which the “activity (%) at 10 μM” value worked out at 100% and the EC50 turned out to be 77 nM.

Regarding `CCn1cc(-c2ccc(CN3Cc4ncnc(OCC(F)(F)F)c4C3=O)c(F)c2)cn1` [Example 35, 6-(4-(1-ethyl-1H-pyrazol-4-yl)-2-fluorobenzyl)-4-(2,2,2-trifluoroethoxy)-6,7-dihydro-5H-pyrrolo[3,4-d]pyrimidin-5-one], the “activity (%) at 10 μM” value is recorded as 98% and the EC50 is 27 nM.
